We go through five compounds from PMC5096027, “Naturally Inspired Peptide Leads: Alanine Scanning Reveals an Actin‐Targeting Thiazole Analogue of Bisebromoamide” (Chembiochem, 2016).

Assay [1] relates to HCT116 cells. The assay can be described thus: alamarBlue cell viability assay. The settings on record: 72 h incubation, eight-point half-log doses 0.003–10 μM, alamarBlue fluorescence, relative to DMSO control, n=3. The assay is classed as cell-based, human. How it is done: (§1) The effects of Bis1–6 on the growth of HCT116 cells (human colon cancer cell‐line) were assessed on an IncuCyte Zoom platform. HCT116 cells express an activating Ras mutation, and represent an aggressive and common form of human colon cancer.26 Dasatinib (dual Src‐Abl tyrosine kinase inhibitor) and DMSO (vehicle, 0.1 % v/v) were used as controls. […] The relative activity of all the analogues was further evaluated by testing each in an eight‐point half‐log dose–response assay (alamarBlue cell viability assay).
Figure 1 HCT116 cell viability. Dose–response curves determined by an alamarBlue cell viability assay after incubation with Bis1–6 (0.003–10 μM) for 72 h. Conversion of the alamarBlue reagent to the activated fluorescent resorufin cell viability indicator was calculated for DMSO (vehicle) and compound‐treated samples. Viability is expressed relative to control (DMSO). Dose–response plots are mean±SD (n=3).
Cell viability assay: HCT116 cells were seeded in a 96‐well plate (5000 cells per well) and incubated for 48 h before treatment. The medium (DMEM with 10 % foetal calf serum and 2 mM glutamine) was replaced with fresh medium containing each of Bis1–6 as eight‐point half‐log doses, and incubated for 3 days. alamarBlue (Invitrogen) cell viability reagent (10 % v/v) was added, and the plate was incubated for 1 h. Fluorescence was detected with an EnVision multilabel reader (λ ex=540 nm, λ em=590 nm; PerkinElmer). All data were normalised to DMSO‐treated cells, and curves were fitted in GraphPad Prism with a sigmoidal variable‐slope curve.

In assay [2] the test system is HCT116 cells. The assay can be described thus: Cytoskeletal morphology assay (ImageXpress high-content imaging, F-actin/DAPI). To be noted: 1 μM, 48 h, F-actin (phalloidin) and DAPI staining. The format is cell-based, human. The text has this: Perhaps most striking in terms of identifying a mechanism for the cytotoxicity were the morphological images collected on an ImageXpress high content microscope (Figure 2). […] The morphological changes induced by Bis1 and Bis2 are in good accord with those previously reported for the parent compound (BBA) in HeLa cells,8 and indicate that the switch from thiazoline to thiazole to facilitate the generation of these Tz‐BBA analogues by SPPS has not impaired activity.
Figure 2 HCT116 cytoskeletal morphology after treatment with 1 μM Bis1–6 for 48 h. Cells were permeabilised and fixed in paraformaldehyde prior to staining nuclei (DAPI, blue) and filamentous‐actin fibres (F‐actin; phalloidin conjugated to Alexa Fluor […], green). Images were acquired in an automated ImageXpress microXL high‐content imaging platform (Molecular Devices) with a 20× objective; images show HCT116 cell morphology for DMSO (control) and each treatment group: A) DMSO; B) cytochalasin D; C) Bis1; D) Bis2; E) Bis3 (representative also for Bis4); F) Bis 6 (representative also for Bis5).
(§2) High‐content imaging methods: Kinetic cell growth and apoptosis assays were performed with an IncuCyte ZOOM live‐cell imaging system (Essen Bioscience, Ann Arbor, MI). Cytoskeletal morphology assays were performed on an ImageXpress Micro High‐Content Analysis System (Molecular Devices, Sunnyvale, CA).
Cytoskeletal morphology assays: Cells were seeded in a 96‐well plates (5000 cells per well) and incubated for 24 h before treatment. The medium was then replaced with fresh medium containing Bis1–6 as eight‐point half‐log doses and incubated for 48 h. Control cells were incubated with DMSO (0.1 % v/v). All images were acquired on an automated ImageXpress Micro XL high‐content imaging platform (Molecular Devices) with a ×20 Plan Fluor ELWD Ph1 DM objective (Nikon) and a 16‐bit camera (binning resolution of 1). Four separate images per well were acquired by using laser‐based autofocus parameters optimised for cell plates and cell type. All immunostaining procedures were performed at room temperature in 96‐well plates (100 μL unless otherwise stated). Cells were fixed by addition of paraformaldehyde (8 % in PBS; final concentration 4 %) and incubated for 20 min. Cells were washed three times with PBS then incubated with a mixture of phalloidin conjugated to Alexa Fluor […] (Molecular Probes (Thermo Fisher) A12379; diluted 1:500) and 4′,6‐diamidino‐2‐phenylindole (DAPI; Sigma–Aldrich D8417) for 45 min in the absence of light. Cells were washed three times with PBS before imaging. Representative images are in Figure 2.

For assay [3], the system named is protein kinase C (PKC). The experiment in a line: Reverse phase protein array (RPPA) profiling, PKC signalling. The assay is classed as cell-based, human. To be noted: HCT116 cell lysates, 3.0–0.03 μM, 24 h exposure, normalised to DMSO. The text has this: (§3) The only clearly discernible inhibition of pathway signalling was for protein kinase C (PKC); there was discernible reduction in total protein expression of the insulin receptor substrate protein IRS‐1 (Figure S2).
(§4) Reverse phase protein array methods: The abundance of total protein and phosphorylated protein epitopes was quantified by using a Zeptosens reverse phase protein microarray platform (Bayer Technology Services, Leverkusen, Germany) as previously described.30 Briefly, HCT116 cells were seeded (4×10^5 cells per well) in six‐well plates. Cells were pre‐incubated in treatment‐free medium for 48 h prior to addition of Bis1–3 at six‐point half‐log doses (3.0–0.03 μM) and incubation for 30 min, 3 h and 24 h. Control samples were treated with medium containing DMSO (0.1 % v/v). The medium was then removed, and the cells were lysed by incubation with CLB1 buffer (Zeptosens) for 30 min. Cell lysates were normalised to a uniform protein concentration with CSBL1 spotting buffer (Zeptosens) prior to preparing a final fourfold concentration series of ([…] mL^−1). The concentration series of each sample was printed onto ZeptoChip protein microarray chips (Zeptosens) under controlled conditions (50 % humidity, 14 °C) by using a Nano‐Plotter NP21/E non‐contact printer (GeSIM, Radeberg, Germany). Single droplets (400 pL) were deposited onto the chips. A reference grid (four columns, 22 rows) of Alexa Fluor 647‐conjugated BSA (Invitrogen) was spotted onto each sub‐array; samples were spotted between reference columns. […] Microarray images representing the longest exposure without saturation of the fluorescence signal were automatically selected for analysis in ZeptoView 3.1 software. A weighted linear‐fit through the fourfold concentration series was used to calculate relative fluorescence intensity (RFI). […]
(§5) Figure S2. […] The mechanism-of-action of Tz-BBA analogues Bis1-3 at the post translational pathway level was evaluated against a panel of 62 protein and phospho-protein analytes by reverse phase protein array (RPPA). […]

The test system of assay [4] is IRS‐1. The assay can be described thus: Reverse phase protein array (RPPA) profiling, IRS-1 total protein expression. The format is cell-based, human. To be noted: HCT116 cell lysates, 3.0–0.03 μM, 24 h exposure, normalised to DMSO.
Text: as §3, §4, §5

The subject of assay [5] is HeLa S3 cells. More on the design: method as in PMID 19803465. To be noted: cited from earlier work.
Assay [6] relates to panel of 39 human cancer cell lines. More on the design: method as in PMID 19803465. To be noted: cited from earlier work.
Assay [7] deals with ERK. More on the design: method as in PMID 19803465. To be noted: NRK cells; cited from earlier work.
The test system of assay [8] is ERK and Akt. More on the design: method as in PMID 24133625. To be noted: two renal cancer cell lines; cited from earlier work.
The test system of assay [9] is actin‐filament. More on the design: method as in PMID 21322638. To be noted: cited from earlier work.
Assay [10] has as its system HCT116 cells. The experiment in a line: IncuCyte ZOOM kinetic cell growth (confluence) assay. The format is cell-based, human. The settings on record: half-log dose response, kinetic readout every 3 h. As to the method:
as §1, §2
Apoptosis assay: Cells were seeded in a 96‐well plate (5000 cells per well) and incubated for 24 h before treatment. […] Apoptosis was detected with the cell‐permeable caspase biosensor NucView 488 (Biotium, Hayward, CA), which was added (1 μM) at the same time as compound. IncuCyte imaging software automatically quantifies cell density and NucView/Caspase positive objects at time points following compound addition. This provided a kinetic readout of cell growth and apoptosis induction in cells after addition of each analogue. […]

pEC50: −log10 of the molar value. Numbered stars: 1 amine (or outer) side, 2 acyl side, 3 side chain; on linkers, the order of the positions; unused ones are H or OH. Square brackets hold non-standard residues; d marks the D form. Peptide text beside a SMILES is read from it. * marks the point of attachment. X1 = C[C@H]1C[C@@H](c2nc(C(=O)[*:2])cs2)N([*:1])C1; Pyrrolidine(2S-propanoyl) = CCC(=O)[C@@H]1CCCN1*; dNMeTyr(3-Br) = CN[C@H](Cc1ccc(O)c(Br)c1)C(=O)O; NMeF = CN[C@@H](Cc1ccccc1)C(=O)O; Piv = CC(C)(C)C(=O)*

The pEC50 is the negative decadic logarithm of the EC50, by convention in mol/L. Higher therefore signals a low EC50. Consider `CC(C)C[C@@H](NC(=O)c1csc([C@@H]2C[C@H](C)CN2C(=O)[C@@H](Cc2ccc(O)c(Br)c2)N(C)C(=O)[C@H](C)NC(=O)C(C)(C)C)n1)C(=O)N(C)[C@@H](Cc1ccccc1)C(=O)N[C@@H](C)C(N)=O` [Bis2] (Piv-A[dNMeTyr(3-Br)][X1][dL][NMeF]A-NH2), for which the pEC50 in assay [1] is 7.15. Further, in assay [2], the “cytoskeletal morphological changes relative to DMSO control” value was “clear disruption and aggregation of F‐actin filaments together with reduced cell‐substrate adhesion”. In addition, the “PKC pathway signalling (RPPA)” value in assay [3] is on record as “reduced activity of PKC”. For the same compound, the “total protein expression of IRS-1 (RPPA)” value in assay [4] is listed as “reduced expression of IRS‐1”.
Usually GI50 stands for the concentration that inhibits growth by half. For bisebromoamide [BBA], the “IC50 against HeLa S3 cells” value in assay [5] was 0.04 mg/L. Further, the 50% growth inhibitory concentration (GI50) in [6] is 0.04 µM. In addition, the “phosphorylation of ERK” value in assay [7] is recorded as “inhibited”. In addition, the “phosphorylation of both ERK and Akt” value in assay [8] is reported as “inhibited”. For the same compound, the “action on actin filaments” value in [9] is listed as “actin‐filament stabiliser”.
As to `CCC(=O)[C@@H]1CCCN1C(=O)[C@H](C)NC(=O)[C@@H](CC(C)C)NC(=O)c1csc([C@@H]2C[C@H](C)CN2C(=O)[C@@H](Cc2ccc(O)c(Br)c2)N(C)C(=O)[C@H](C)NC(=O)C(C)(C)C)n1` [Bis3] (Piv-A[dNMeTyr(3-Br)][X1][dL]A-{Pyrrolidine(2S-propanoyl)}), in assay [1], the pEC50 was 6.32. In [2], the “cytoskeletal morphological changes relative to DMSO control” value is “more elongated cells with prominent F‐actin filaments and promotion of cell‐substrate adhesion”. Moreover, in assay [3], the “PKC pathway signalling (RPPA)” value was “more affected by Bis1 and Bis2 than by Bis3”. Moreover, in [4], the “total protein expression of IRS-1 (RPPA)” value is “more affected by Bis1 and Bis2 than by Bis3”.
`CCC(=O)[C@@H]1CCCN1C(=O)[C@H](Cc1ccccc1)N(C)C(=O)[C@H](C)NC(=O)c1csc([C@@H]2C[C@H](C)CN2C(=O)[C@@H](Cc2ccc(O)c(Br)c2)N(C)C(=O)[C@H](C)NC(=O)C(C)(C)C)n1` [Bis4] (Piv-A[dNMeTyr(3-Br)][X1]A[NMeF]-{Pyrrolidine(2S-propanoyl)}) gave a negative-log EC50 (pEC50) in assay [1] of 6.75. The “cytoskeletal morphological changes relative to DMSO control” value in assay [2] is “more elongated cells with prominent F‐actin filaments and promotion of cell‐substrate adhesion”.
For `CCC(=O)[C@@H]1CCCN1C(=O)[C@H](Cc1ccccc1)N(C)C(=O)[C@@H](CC(C)C)NC(=O)c1csc([C@@H]2C[C@H](C)CN2C(=O)[C@@H](Cc2ccc(O)c(Br)c2)N(C)C(=O)[C@H](C)NC(=O)C(C)(C)C)n1` [Bis1, thiazole‐bisebromoamide] (Piv-A[dNMeTyr(3-Br)][X1][dL][NMeF]-{Pyrrolidine(2S-propanoyl)}), the “repression of cell growth (confluence)” value in assay [10] is given as “most active”. In [2], the “cytoskeletal morphological changes relative to DMSO control” value was “clear disruption and aggregation of F‐actin filaments together with reduced cell‐substrate adhesion”. Moreover, the “PKC pathway signalling (RPPA)” value in assay [3] is “reduced activity of PKC”. For the same compound, the “total protein expression of IRS-1 (RPPA)” value in [4] is given as “reduced expression of IRS‐1”.
